Measured values as given in ChEMBL document CHEMBL5252611, “2- and 3-Fluoro-3-deaza-1',6'-isoneplanocin: Synthesis and antiviral properties (including Ebola and Marburg)” (Bioorg Med Chem Lett, 2023).
pEC50: −log10 of the molar value. Active and inactive are the calls of the source. The calls are words filed in the database; no cut-off is given here.

Assays:
[1] = test system: Zaire ebolavirus; assay: Antiviral activity against Zaire ebolavirus infected in African green monkey Vero cells; format: functional, organism-based
[2] = Selectivity index, ratio of CC50 for cytotoxicity against African green monkey Vero cells infected with Zaire ebolavirus to EC50 for antiviral activity against Zaire ebolavirus infected in African green monkey Vero cells; format: toxicity, cell-based; conditions: read-out: Ratio CC50/EC50
[3] = test system: Marburgvirus; assay: Antiviral activity against Marburgvirus Angola infected in African green monkey Vero cells; format: functional, organism-based; conditions: Orthomarburgvirus
[4] = Cytotoxicity against African green monkey Vero cells infected with Zaire ebolavirus; format: toxicity, cell-based; conditions: chlorocebus sabaeus
[5] = Cytotoxicity against African green monkey Vero cells infected with Marburgvirus Angola; format: toxicity, cell-based; conditions: chlorocebus sabaeus
[6] = Selectivity index, ratio of CC50 for cytotoxicity against African green monkey Vero cells infected with Marburgvirus Angola to EC50 for antiviral activity against Marburgvirus Angola infected in African green monkey Vero cells; format: toxicity, cell-based; conditions: read-out: Ratio CC50/EC50
[7] = test system: Influenza B virus; assay: Antiviral activity against influenza B virus; format: functional, organism-based
[8] = test system: Tacaribe virus; assay: Antiviral activity against Tacaribe virus; format: functional, organism-based; conditions: Mammarenavirus tacaribeense
[9] = test system: Human betaherpesvirus 5; assay: Antiviral activity against Human betaherpesvirus 5; format: functional, organism-based
[10] = test system: Influenza A virus; assay: Antiviral activity against influenza A virus H5N1; format: functional, organism-based
[11] = test system: Rift Valley fever virus; assay: Antiviral activity against Rift Valley fever virus; format: functional, organism-based
[12] = Selectivity index, ratio of CC50 for cytotoxicity against human HepG2.2.15 cells to EC50 for antiviral activity against HBV ayw1 infected in human HepG2.2.15 cells; format: toxicity, cell-based; conditions: read-out: Ratio CC50/EC50
[13] = test system: Japanese encephalitis virus; assay: Antiviral activity against Japanese encephalitis virus SA 14 infected in African green monkey Vero 76 cells; format: functional, organism-based
[14] = test system: Enterovirus A71; assay: Antiviral activity against Human enterovirus 71 Tainan/4643/98 infected in African green monkey Vero 76 cells; format: functional, organism-based
[15] = test system: Poliovirus 1; assay: Antiviral activity against Human poliovirus 1 Mahoney infected in African green monkey Vero 76 cells; format: functional, organism-based
[16] = test system: Human betaherpesvirus 5; assay: Antiviral activity against Human betaherpesvirus 5 AD 169 infected in HFF cells; format: functional, organism-based
[17] = test system: dengue virus type 2; assay: Antiviral activity against Dengue virus 2 New Guinea infected in human Huh-7 cells; format: functional, organism-based
[18] = Selectivity index, ratio of CC50 for cytotoxicity against MDCK cells infected with influenza A virus California/7/2009(H1N1) to EC50 for antiviral activity against influenza A virus California/7/2009(H1N1) infected in MDCK cells; format: toxicity, cell-based; conditions: dog; read-out: Ratio CC50/EC50
[19] = test system: Yellow fever virus; assay: Antiviral activity against Yellow fever virus YFV 17D infected in human Huh-7 cells; format: functional, organism-based
[20] = Selectivity index, ratio of CC50 for cytotoxicity against human HG23 cells infected with Norovirus Genogroup 1 to EC50 for antiviral activity against Norovirus Genogroup 1 infected in human HG23 cells; format: toxicity, cell-based; conditions: read-out: Ratio CC50/EC50
[21] = Cytotoxicity against MDCK cells infected with influenza A virus California/7/2009(H1N1); format: toxicity, cell-based, Canis lupus familiaris; conditions: dog
[22] = test system: Chikungunya virus; assay: Antiviral activity against Chikungunya virus S27 infected in African green monkey Vero 76 cells; format: functional, organism-based
[23] = test system: Norovirus; assay: Antiviral activity against Norovirus Genogroup 1 infected in human HG23 cells; format: functional, organism-based; conditions: Genogroup 1, HG23
[24] = test system: Hepatitis B virus; assay: Antiviral activity against HBV ayw1 infected in human HepG2.2.15 cells; format: functional, organism-based; conditions: ayw1, HepG2.2.15
[25] = test system: West Nile virus; assay: Antiviral activity against West Nile virus Kern 515 infected in African green monkey Vero 76 cells; format: functional, organism-based
[26] = Cytotoxicity against human HG23 cells infected with Norovirus Genogroup 1; format: toxicity, cell-based
[27] = Cytotoxicity against human HepG2.2.15 cells; format: toxicity, cell-based, HepG2 2.2.15
[28] = test system: Punta Toro virus; assay: Antiviral activity against Punta Toro virus Adames infected in African green monkey Vero 76 cells; format: functional, organism-based
[29] = test system: Influenza A virus; assay: Antiviral activity against influenza A virus California/7/2009(H1N1) infected in MDCK cells; format: functional, organism-based
[30] = test system: Venezuelan equine encephalitis virus; assay: Antiviral activity against Venezuelan equine encephalitis virus TC-83 infected in African green monkey Vero 76 cells; format: functional, organism-based
[31] = test system: Measles morbillivirus; assay: Antiviral activity against Measles virus CC infected in African green monkey Vero 76 cells by neutral red dye based analysis; format: functional, organism-based
[32] = Selectivity index, ratio of CC50 for cytotoxicity against African green monkey Vero 76 cells infected with Measles virus CC by visual analysis to EC50 for antiviral activity against Measles virus CC infected in African green monkey Vero 76 cells by visual analysis; format: toxicity, cell-based; conditions: read-out: Ratio CC50/EC50
[33] = test system: Measles morbillivirus; assay: Antiviral activity against Measles virus CC infected in African green monkey Vero 76 cells by visual analysis; format: functional, organism-based
[34] = Cytotoxicity against African green monkey Vero 76 cells infected with Measles virus CC by visual analysis; format: toxicity, cell-based; conditions: chlorocebus sabaeus
[35] = Selectivity index, ratio of CC50 for cytotoxicity against African green monkey Vero 76 cells by neutral red dye based analysis to EC50 for antiviral activity against Measles virus CC infected in African green monkey Vero 76 cells by neutral red dye based analysis; format: toxicity, cell-based; conditions: read-out: Ratio CC50/EC50
[36] = Cytotoxicity against African green monkey Vero 76 cells infected with Measles virus CC by neutral red dye based analysis; format: toxicity, cell-based; conditions: chlorocebus sabaeus

## NC(=O)c1nc(F)cnc1O [FAVIPIRAVIR]
[1]
  pEC50: 4.62
[2]
  selectivity ratio: > 43
[3]
  pEC50: 3.78
[4]
  CC50: > 1000 µM
[5]
  CC50: > 1000 µM
[6]
  selectivity ratio: > 6

## Nc1nc(F)cc2c1ncn2[C@@H]1C=C(CO)[C@@H](O)[C@H]1O
[7]
  Activity: Active
[8]
  Activity: Active
[9]
  Activity: Active
[10]
  Activity: Active
[11]
  Activity: Active

## Nc1ncc(F)c2c1ncn2C1=C[C@H](CO)[C@@H](O)[C@H]1O
[12]
  selectivity ratio: > 2760
[13]
  Activity: Active
[14]
  Activity: Active
[15]
  Activity: Active
[16]
  Activity: Active
[17]
  Activity: inactive
[18]
  selectivity ratio: > 1000
[1]
  pEC50: > 7.00
[19]
  Activity: inactive
[20]
  selectivity ratio: > 2760
[21]
  CC50: > 357 µM
[22]
  Activity: inactive
[23]
  pEC50: 6.19
[24]
  pEC50: 5.89
[25]
  Activity: inactive
[2]
  selectivity ratio: > 538
[3]
  pEC50: > 7.00
[4]
  CC50: > 100 µM
[26]
  CC50: > 357 µM
[27]
  CC50: > 357 µM
[28]
  Activity: inactive
[29]
  pEC50: > 6.44
[5]
  CC50: > 100 µM
[6]
  selectivity ratio: > 1000
[30]
  Activity: Active

## Nc1ccn([C@@H]2O[C@H](CO)[C@@H](O)[C@H]2F)c(=O)n1
[31]
  pEC50: 5.44
[32]
  selectivity ratio: 121
[33]
  pEC50: 5.64
[34]
  CC50: 277 µM
[35]
  selectivity ratio: 69
[36]
  CC50: 249 µM

## Nc1ccn([C@@H]2CS[C@H](CO)O2)c(=O)n1 [LAMIVUDINE]
[12]
  selectivity ratio: > 99
[24]
  pEC50: 7.70
[27]
  CC50: > 2 µM
